Literature values in patent US12193471B2, “Aerosolizable formulation” (NICOVENTURES TRADING LIMITED, priority 2018, dated 2025).

Settings: compared to base cyclodextrins such as β-cyclodextrin

2-hydroxy-propyl-β-cyclodextrin
solubility in water: increased solubility in water
